Test results taken from patent US9708316B2 (BRISTOL-MYERS SQUIBB COMPANY, priority 2014, dated 2017).

How the values were obtained:
[1] = biological target: T1, HIS-TGFβR1 T204D (Homo sapiens, UniProt P36897, T204D); assay: HTRF probe-displacement assay, HIS-TGFβR1 T204D; assay type: binding; settings: read-out: TGFβR1 (μM) IC50
T1 sequence (P36897 34-503 T204D): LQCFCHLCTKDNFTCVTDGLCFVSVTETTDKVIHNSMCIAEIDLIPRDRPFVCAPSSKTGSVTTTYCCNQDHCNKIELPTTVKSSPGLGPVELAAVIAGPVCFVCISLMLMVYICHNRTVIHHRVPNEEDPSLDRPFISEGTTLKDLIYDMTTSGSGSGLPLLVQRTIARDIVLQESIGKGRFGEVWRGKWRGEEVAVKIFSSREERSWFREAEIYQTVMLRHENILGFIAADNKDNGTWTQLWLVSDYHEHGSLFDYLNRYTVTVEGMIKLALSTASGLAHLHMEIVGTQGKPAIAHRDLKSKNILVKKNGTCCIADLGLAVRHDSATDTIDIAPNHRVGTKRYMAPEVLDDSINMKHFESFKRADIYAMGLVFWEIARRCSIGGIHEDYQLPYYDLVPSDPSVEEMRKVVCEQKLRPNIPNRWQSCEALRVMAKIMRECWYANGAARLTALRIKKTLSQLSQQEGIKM

[2] = biological target: HIS-TGFβR2 WT (Homo sapiens, UniProt P37173); assay: HTRF probe-displacement assay, HIS-TGFβR2 WT; assay type: binding
Sequence of HIS-TGFβR2 WT (P37173 23-567): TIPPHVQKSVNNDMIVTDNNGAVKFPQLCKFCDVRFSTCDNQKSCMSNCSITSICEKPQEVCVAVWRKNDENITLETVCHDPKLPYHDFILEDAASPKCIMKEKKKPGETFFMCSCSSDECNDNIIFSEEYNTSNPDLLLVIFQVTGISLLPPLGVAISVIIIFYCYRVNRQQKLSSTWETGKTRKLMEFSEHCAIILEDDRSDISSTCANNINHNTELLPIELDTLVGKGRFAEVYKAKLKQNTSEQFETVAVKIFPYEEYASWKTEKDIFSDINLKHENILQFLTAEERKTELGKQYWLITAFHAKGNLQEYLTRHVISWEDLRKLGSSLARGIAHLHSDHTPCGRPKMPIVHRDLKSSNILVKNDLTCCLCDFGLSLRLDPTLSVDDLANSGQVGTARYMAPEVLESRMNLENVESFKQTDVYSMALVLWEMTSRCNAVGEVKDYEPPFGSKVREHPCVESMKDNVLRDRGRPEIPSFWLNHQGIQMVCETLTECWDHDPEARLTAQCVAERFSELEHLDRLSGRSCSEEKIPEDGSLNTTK

Question: With COc1ccnc2c(-c3nc(C)cs3)c(-c3ccnc(NC(C)=O)c3)[nH]c12 [Example 234, N-(4-(7-Methoxy-3-(4-methylthiazol-2-yl)-1H-pyrrolo[3,2-b]pyridin-2-yl)pyridin-2-yl)acetamide] as the compound, how does the IC50 [1] read?
Answer: 0.0016 µM

Question: What about the IC50 [2] of the same compound?
Answer: 0.572 µM

Question: For CC(=O)Nc1cc(-c2[nH]c3cccnc3c2-c2cc(Cl)ccn2)ccn1 [Example 32, N-{4-[3-(4-Chloropyridin-2-yl)-1H-pyrrolo[3,2-b]pyridin-2-yl]pyridin-2-yl}acetamide], which IC50 [1] is on record?
Answer: 0.049 µM

Question: What about the IC50 [2] of the same compound?
Answer: 0.44 µM

Question: How did the IC50 [1] turn out when COc1ccc(-c2c(-c3ccnc(NC(C)=O)c3)[nH]c3ccc(OC)nc23)cn1 [Example 76, N-(4-(5-Methoxy-3-(6-methoxypyridin-3-yl)-1H-pyrrolo[3,2-b]pyridin-2-yl)pyridin-2-yl)acetamide] was run?
Answer: 0.016 µM

Question: What about the IC50 [2] of the same compound?
Answer: 0.93 µM

Question: For CC(=O)Nc1cc(-c2[nH]c3c(OCCN4CCCC4)ccnc3c2-c2cccc(C(F)F)n2)ccn1 [Example 126, N-(4-{3-[6-(Difluoromethyl)pyridin-2-yl]-7-[2-(pyrrolidin-1-yl)ethoxy]-1H-pyrrolo[3,2-b]pyridin-2-yl}pyridin-2-yl)acetamide], which IC50 [1] is on record?
Answer: 0.009 µM

Question: What about the IC50 [2] of the same compound?
Answer: > 15 µM

Question: How did the IC50 [1] turn out when CC(=O)Nc1cc(-c2[nH]c3c(C(C)O)ccnc3c2-c2cccc(C(F)F)n2)ccn1 (centres unmarked) [Example 143, N-(4-{3-[6-(Difluoromethyl)pyridin-2-yl]-7-(1-hydroxyethyl)-1H-pyrrolo[3,2-b]pyridin-2-yl}pyridin-2-yl)acetamide] was run?
Answer: 0.001 µM

Question: What about the IC50 [2] of the same compound?
Answer: 2.53 µM

Question: Which results are given for COc1ccc(-c2c(-c3ccnc(NC(C)=O)c3)[nH]c3cc(Cl)cnc23)nc1 [Example 47, N-{4-[6-Chloro-3-(5-methoxypyridin-2-yl)-1H-pyrrolo[3,2-b]pyridin-2-yl]pyridin-2-yl}acetamide]?
Answer: IC50 [1]: 0.004 µM; IC50 [2]: > 15 µM

Question: With CC(=O)Nc1cc(-c2[nH]c3cc(F)cnc3c2-c2ncc(C(F)F)s2)ccn1 [Example 182, N-(4-(3-(5-(Difluoromethyl)thiazol-2-yl)-6-fluoro-1H-pyrrolo[3,2-b]pyridin-2-yl)pyridin-2-yl)acetamide] as the compound, how does the IC50 [1] read?
Answer: 0.182 µM

Question: And the IC50 [2]?
Answer: > 15 µM

Question: What does the source list for COc1cccc(-c2c(-c3ccnc(NC(C)=O)c3)[nH]c3cccnc23)n1 [Example 2, N-{4-[3-(6-Methoxypyridin-2-yl)-1H-pyrrolo[3,2-b]pyridin-2-yl]pyridin-2-yl}acetamide]?
Answer: IC50 [1]: 0.006 µM; IC50 [2]: 7.85 µM

Question: How did the IC50 [1] turn out when CC(=O)Nc1cc(-c2[nH]c3c(-c4c(C)noc4C)ccnc3c2-c2cccc(C(F)F)n2)ccn1 [Example 130, N-(4-{3-[6-(Difluoromethyl)pyridin-2-yl]-7-(dimethyl-1,2-oxazol-4-yl)-1H-pyrrolo[3,2-b]pyridin-2-yl}pyridin-2-yl)acetamide] was run?
Answer: 0.004 µM

Question: And the IC50 [2]?
Answer: > 15 µM

Question: What does the source list for CC(=O)Nc1cc(-c2[nH]c3cccnc3c2-c2ccc(C#N)nc2)ccn1 [Example 12, N-{4-[3-(6-Cyanopyridin-3-yl)-1H-pyrrolo[3,2-b]pyridin-2-yl]pyridin-2-yl}acetamide]?
Answer: IC50 [1]: 0.058 µM; IC50 [2]: 1.31 µM

Question: With COC(=O)c1cc(Cl)nc2c(-c3ccc(Cl)cn3)c(-c3ccnc(NC(C)=O)c3)[nH]c12 [Example 70, Methyl 5-chloro-3-(5-chloropyridin-2-yl)-2-(2-acetamidopyridin-4-yl)-1H-pyrrolo[3,2-b]pyridine-7-carboxylate] as the compound, how does the IC50 [1] read?
Answer: 7.73 µM

Question: What about the IC50 [2] of the same compound?
Answer: > 15 µM

Question: With CC(=O)Nc1cc(-c2[nH]c3cc(F)cnc3c2-c2nc(C#N)cs2)ccn1 [Example 226, N-(4-(3-(4-Cyanothiazol-2-yl)-6-fluoro-1H-pyrrolo[3,2-b]pyridin-2-yl)pyridin-2-yl)acetamide] as the compound, how does the IC50 [1] read?
Answer: 0.0041 µM

Question: What about the IC50 [2] of the same compound?
Answer: 1.55 µM

Question: COc1cnc2c(-c3ccc(OC)nc3)c(-c3ccnc(NC(C)=O)c3)[nH]c2c1 [Example 285, N-(4-(6-Methoxy-3-(6-methoxypyridin-3-yl)-1H-pyrrolo[3,2-b]pyridin-2-yl)pyridin-2-yl)acetamide] was tested. Which IC50 [1] did it give?
Answer: 0.002 µM

Question: And the IC50 [2]?
Answer: 0.016 µM

Question: Which IC50 [1] does the source give for COC(=O)Nc1cc(-c2[nH]c3cc(OC)cnc3c2-c2ccc(OC)cn2)ccn1 [Example 124, Methyl N-{4-[6-methoxy-3-(5-methoxypyridin-2-yl)-1H-pyrrolo[3,2-b]pyridin-2-yl]pyridin-2-yl}carbamate] here?
Answer: 0.001 µM

Question: And the IC50 [2]?
Answer: 12.8 µM

Question: Which results are given for CC(=O)Nc1cc(-c2[nH]c3c(C4CCOCC4)ccnc3c2-c2cccc(C)n2)ccn1 [Example 136, N-{4-[3-(6-Methylpyridin-2-yl)-7-(oxan-4-yl)-1H-pyrrolo[3,2-b]pyridin-2-yl]pyridin-2-yl}acetamide]?
Answer: IC50 [1]: 0.006 µM; IC50 [2]: > 15 µM

Question: Which results are given for CC(=O)Nc1cc(-c2[nH]c3c(CN(C)C)ccnc3c2-c2cccc(C(F)F)n2)ccn1 [Example 141, N-(4-{3-[6-(Difluoromethyl)pyridin-2-yl]-7-[(dimethylamino)methyl]-1H-pyrrolo[3,2-b]pyridin-2-yl}pyridin-2-yl)acetamide]?
Answer: IC50 [1]: 0.003 µM; IC50 [2]: 27.3 µM

Question: CC(=O)Nc1cc(-c2[nH]c3cc(Cl)cnc3c2-c2ncc(Cl)s2)ccn1 [Example 168, N-(4-(6-Chloro-3-(5-chlorothiazol-2-yl)-1H-pyrrolo[3,2-b]pyridin-2-yl)pyridin-2-yl)acetamide] was tested. Which IC50 [1] did it give?
Answer: 0.0138 µM

Question: What about the IC50 [2] of the same compound?
Answer: 1.19 µM

Question: For COc1cnc2c(-c3ccc(C(F)F)cn3)c(-c3ccnc(NC(C)=O)c3)[nH]c2c1 [Example 110, N-(4-(3-(5-(Difluoromethyl)pyridin-2-yl)-6-methoxy-1H-pyrrolo[3,2-b]pyridin-2-yl)pyridin-2-yl)acetamide], which IC50 [1] is on record?
Answer: 0.053 µM

Question: And the IC50 [2]?
Answer: > 15 µM

Question: With CC(=O)Nc1cc(-c2[nH]c3c(C(=O)NC(CO)CO)cc(Cl)nc3c2-c2cccnc2)ccn1 [Example 60, 5-Chloro-N-(1,3-dihydroxypropan-2-yl)-2-(2-acetamidopyridin-4-yl)-3-(pyridin-3-yl)-1H-pyrrolo[3,2-b]pyridine-7-carboxamide] as the compound, how does the IC50 [1] read?
Answer: 0.32 µM

Question: And the IC50 [2]?
Answer: 6.65 µM

Question: What does the source list for COc1ccc(-c2c(-c3ccnc(NCC(C)C)c3)[nH]c3cc(Cl)cnc23)nc1 [Example 243, 4-(6-Chloro-3-(5-methoxypyridin-2-yl)-1H-pyrrolo[3,2-b]pyridin-2-yl)-N-isobutylpyridin-2-amine]?
Answer: IC50 [1]: 0.361 µM; IC50 [2]: ≥ 15 µM

Question: COCC(C)Oc1cnc2c(-c3ccc(OC)cn3)c(-c3ccnc(NC(C)=O)c3)[nH]c2c1 (centres unmarked) [Example 97, N-(4-(6-((1-Methoxypropan-2-yl)oxy)-3-(5-methoxypyridin-2-yl)-1H-pyrrolo[3,2-b]pyridin-2-yl)pyridin-2-yl)acetamide] was tested. Which IC50 [1] did it give?
Answer: 0.001 µM

Question: And the IC50 [2]?
Answer: > 15 µM

Question: For COc1ccc(-c2c(-c3ccnc(NC(C)=O)c3)[nH]c3ccc(F)nc23)cn1 [Example 36, N-{4-[5-Fluoro-3-(6-methoxypyridin-3-yl)-1H-pyrrolo[3,2-b]pyridin-2-yl]pyridin-2-yl}acetamide], which IC50 [1] is on record?
Answer: 0.002 µM

Question: What about the IC50 [2] of the same compound?
Answer: 0.06 µM

Question: For COc1ccc(-c2c(-c3ccnc(NC(C)=O)c3)[nH]c3cc(-c4c(C)noc4C)cnc23)nc1 [Example 93, N-{4-[6-(Dimethyl-1,2-oxazol-4-yl)-3-(5-methoxypyridin-2-yl)-1H-pyrrolo[3,2-b]pyridin-2-yl]pyridin-2-yl}acetamide], which IC50 [1] is on record?
Answer: 0.003 µM

Question: What about the IC50 [2] of the same compound?
Answer: > 15 µM

Question: Which IC50 [1] does the source give for CC(=O)Nc1cc(-c2[nH]c3cc(C)cnc3c2-c2ncc(C(F)F)s2)ccn1 [Example 185, N-(4-(3-(5-(Difluoromethyl)thiazol-2-yl)-6-methyl-1H-pyrrolo[3,2-b]pyridin-2-yl)pyridin-2-yl)acetamide] here?
Answer: 7 µM

Question: What about the IC50 [2] of the same compound?
Answer: > 15 µM

Question: With CC(=O)Nc1cc(-c2[nH]c3cccnc3c2-c2cccc(F)n2)ccn1 [Example 16, N-{4-[3-(6-Fluoropyridin-2-yl)-1H-pyrrolo[3,2-b]pyridin-2-yl]pyridin-2-yl}acetamide] as the compound, how does the IC50 [1] read?
Answer: 0.002 µM

Question: What about the IC50 [2] of the same compound?
Answer: 0.087 µM

Question: What does the source list for CNc1cc(-c2[nH]c3cc(Cl)cnc3c2-c2ccc(F)cn2)ccn1 [Example 82, 4-[6-Chloro-3-(5-fluoropyridin-2-yl)-1H-pyrrolo[3,2-b]pyridin-2-yl]-N-methylpyridin-2-amine]?
Answer: IC50 [1]: 0.006 µM; IC50 [2]: 4.05 µM

Question: Which results are given for CC(=O)Nc1cc(-c2[nH]c3c(C4CCN(C)CC4)ccnc3c2-c2cccc(C(F)F)n2)ccn1 [Example 137, N-(4-{3-[6-(Difluoromethyl)pyridin-2-yl]-7-(1-methylpiperidin-4-yl)-1H-pyrrolo[3,2-b]pyridin-2-yl}pyridin-2-yl)acetamide]?
Answer: IC50 [1]: 0.058 µM; IC50 [2]: > 15 µM

Question: Which results are given for CC(=O)Nc1cc(-c2[nH]c3ccc(F)nc3c2-c2cccc(Cl)n2)ccn1 [Example 34, N-{4-[3-(6-Chloropyridin-2-yl)-5-fluoro-1H-pyrrolo[3,2-b]pyridin-2-yl]pyridin-2-yl}acetamide]?
Answer: IC50 [1]: 0.002 µM; IC50 [2]: 0.13 µM

Question: What does the source list for CC(=O)Nc1cc(-c2[nH]c3c([C@H](C)O)ccnc3c2-c2cccc(C(F)F)n2)ccn1 (single isomer, unassigned) [Example 147]?
Answer: IC50 [1]: 0.002 µM; IC50 [2]: 0.75 µM

Question: How did the IC50 [1] turn out when CC(=O)Nc1cc(-c2[nH]c3c(C(C)O)ccnc3c2-c2ccc(Cl)nc2)ccn1 (centres unmarked) [Example 264, N-(4-(3-(6-Chloropyridin-3-yl)-7-(1-hydroxyethyl)-1H-pyrrolo[3,2-b]pyridin-2-yl)pyridin-2-yl)acetamide] was run?
Answer: 0.001 µM

Question: And the IC50 [2]?
Answer: 0.681 µM

Question: For COc1ccc(-c2c(-c3ccnc(NC(C)=O)c3)[nH]c3c(CO)ccnc23)cn1 [Example 274, N-(4-(7-(Hydroxymethyl)-3-(6-methoxypyridin-3-yl)-1H-pyrrolo[3,2-b]pyridin-2-yl)pyridin-2-yl)acetamide], which IC50 [1] is on record?
Answer: 0.001 µM

Question: What about the IC50 [2] of the same compound?
Answer: 0.114 µM
